# Results published in patent publication US20020009508A1, “Echinacea extract as anti-irritant and anti-aging booster in cosmetic compositions” (priority 2000, published 2002).
# Test system: IL-1a-induced PGE2 in neonatal human dermal fibroblasts
# Assay: Inhibition of IL-1a-induced PGE2 production in fibroblasts (PGE2 enzyme immunoassay)
# Type: cell-based
# Experimental: Neonatal human dermal fibroblasts (passage 5-9) were seeded at a density of 7500 cells per well in 96-well tissue culture treated plates (Corning-Costar, Corning, N.Y.). The medium used was Dulbecco's Modified Eagle's Medium (DMEM), high-glucose (Gibco/Life Technologies, Gaithersburg, Md.) supplemented with 2 mM L-glutamine, 10% fetal bovine serum, and antibiotic and anti mycotic solutions (all also Life Technologies). After 48 hours, each well was rinsed twice with 200 μl serum-free DMEM and the cells dosed with 200 μl in DMEM+L-glutamine containing IL-1α at 1 ng/ml +/− active. […]
# Enzyme immunoassay was performed using a commercial PGE2 kit (Amersham, Buckinghamshire, England). […] The assay is based on the competition between unlabelled PGE2 (standard or sample) and a fixed quantity of peroxidase labelled PGE2 for a limited amount of the well-bound PGE2-specific antibody. […] The Dynatech MR7000 microplate spectrophotometer (Dynatech, Chantilly, Va.) was used to quantitate color in the wells by reading absorbance at 450 nm. […]
# The antiinflammatory potential of the test compounds is assessed by the ability of the compound to inhibit IL-1a-induced PGE2 and is expressed as the ratio of PGE2 produced by the cells treated with the test compound +IL-1a to PGE2 produced by the cells treated with IL-1a alone. […] Statistical significance was determined using the student's t-test.
substance,measurement,setting,value
Chicoric acid,Ratio of PGE2 with echinacea + IL-1a/IL-1a,"Table 1b, concentration 0.001%",0.02
same,Effectiveness in the PGE2 test (in words),at 0.001%,effective
